# Tests used:
# Assay type in all cases: cell-based
# SKMEL-28 cells = assay: Clonogenicity (colony formation) inhibition; settings: Homo sapiens, SK-MEL-28; SKMEL-28 (H); 72 h; read-out: Clono IC50
# From the text: (§1) Supplementary Fig. 1. a DDA inhibited m elanom a colony form ation. Melanom a cells were […]
# (§2) a 0.5% solution of crystal violet in water and analyzed by microscopy. Images are representative of 5 independent experiments. b Evaluation of DDA-induced cytotoxicity (cytotox) and clonogenicity (clono) inhibition in a subset of human (H) and mouse (M) m elanom a cell lines. T he BRaf status in m elanom a cells lines is shown. […]
# B16F10 cells = assay: Clonogenicity (colony formation) inhibition; settings: Mus musculus, B16-F10; B16F10 (M); 72 h; read-out: Clono IC50
# From the text: as §1, §2
# WM35 cells = assay: DDA-induced cytotoxicity; settings: Homo sapiens; WM35 (H), BRaf V600E; 72 h; read-out: Cytotox EC50
# Method: (§3) Melanoma cells were seeded into 6-well plates at 60,000 cells per well and AML cells at 250,000 cells/ml. The cells were then treated with control solvent vehicle (1/1000 ethanol in water) or DDA. Where indicated, treated cells were incubated in the presence or absence of each inhibitor for time shown. Cell death was determined by the trypan blue exclusion assay. Cells were scraped and resuspended in trypan blue solution (0.25% (w/v) in PBS) and counted in a Malassez cell under light microscopy. Cell viability was then quantified by counting viable (trypan blue-negative) and dead cells (trypan blue-positive). […]
# (§4) (cytotox) and clonogenicity (clono) inhibition in a subset of human (H) and mouse (M)
# (§5) m elanom a cell lines. T he BRaf status in m elanom a cells lines is shown. […]
# WM-266-4 cells = assay: DDA-induced cytotoxicity; settings: Homo sapiens; WM-266-4 (H), BRaf WT; 72 h; read-out: Cytotox EC50
# Method: as §3, §4, §5
# A375 cells = assay: DDA-induced cytotoxicity; settings: Homo sapiens, A-375; A375 (H), BRaf V600E; 72 h; read-out: Cytotox EC50
# Method: as §3, §4, §5
# SKMEL-2 cells = assay: DDA-induced cytotoxicity; settings: Homo sapiens, SK-MEL-2; SKMEL-2 (H), BRaf WT; 72 h; read-out: Cytotox EC50
# Method: as §3, §4, §5
# WM115 cells = assay: DDA-induced cytotoxicity; settings: Homo sapiens, WM-115; WM115 (H), BRaf V600E; 72 h; read-out: Cytotox EC50
# Method: as §3, §4, §5
# [1] = biological target: T1, 3β-hydroxysterol-Δ8,7-isomerase (D8D7I) (Homo sapiens, UniProt Q15125); assay: D8D7I inhibition shown by Δ8-sterol accumulation in melanoma cells; settings: B16F10 and SKMEL-28, 2.5 µM DDA, 48 h; accumulation of zymostenol and 8-dehydrocholesterol
# T1 construct: endogenous in cells; host or cells: B16F10 (murine) and SKMEL-28 (human) melanoma cells
# T1 sequence (Q15125 whole entry, stated change not applied): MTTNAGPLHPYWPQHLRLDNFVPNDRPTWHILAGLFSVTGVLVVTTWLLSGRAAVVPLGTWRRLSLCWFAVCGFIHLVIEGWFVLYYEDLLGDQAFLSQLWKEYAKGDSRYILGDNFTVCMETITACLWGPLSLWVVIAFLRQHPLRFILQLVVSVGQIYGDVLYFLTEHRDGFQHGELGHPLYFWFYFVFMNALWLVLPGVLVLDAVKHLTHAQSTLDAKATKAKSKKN
# Method: Sterols in cell homogenates were extracted with a solvent mixture containing chloroform/methanol 2/1 (v/v) spiked with epicoprostanol as the internal standard. Lipids were partitioned in chloroform after the addition of saline and saponified by methanolic potassium hydroxide (0.5 N, 60 °C, 15 min). The fatty acids released were methylated with BF3-methanol (12%, 60 °C, 15 min) to not interfere with the chromatography of sterols. The sterols were re-extracted in hexane and silylated, as described previously. […] Sterols were identified by the fragmentogram in the scanning mode and quantified by selective monitoring of the specific ions after normalization with the internal standard epicoprostanol and calibration with weighed standards.
# Supplementary Fig. 2. DD A induce d th e accum ulation of cholestero l precursors in m elanom a cells. a Quantification of sterol accum ulation in cells after 48 h tr eatm ent with or without 2.5 µM DDA. […]
# accum ulation. e Representative EM im ages of cells treated for 24 h with solvent vehicle (panels 1- 2) or 2.5 µM DDA (panels 3- 4). […] Cells were treated with solvent vehicle (control) or 2.5 µM DDA for 24 h with or without 1 µ M Baf A1, the n stained with MDC and obser ved by fluorescence m icroscopy. […]
structure (smiles),measurement,setting,value
"CC(C)CCC[C@@H](C)[C@H]1CC[C@H]2[C@@H]3C[C@@H](NCCc4cnc[nH]4)[C@@]4(O)C[C@@H](O)CC[C@]4(C)[C@H]3CC[C@]12C [DDA, Dendrogenin A]",IC50,SKMEL-28 cells,1400 ± 600 nM
same,IC50,B16F10 cells,1.2e-06 ± 3e-07 M
same,EC50,WM35 cells,1600 ± 100 nM
same,EC50,WM-266-4 cells,2700 ± 400 nM
same,EC50,A375 cells,1800 ± 200 nM
same,EC50,SKMEL-2 cells,2300 ± 100 nM
same,EC50,WM115 cells,2200 ± 200 nM
same,D8D7I inhibition,[1],inhibited D8D7I

# From PMC5712521, “Dendrogenin A drives LXR to trigger lethal autophagy in cancers” (Nature Communications, 2017)
